The values below come from US9758529B2, “Fused dihydro-4H-pyrazolo[5,1-C][1,4]oxazinyl compounds and analogs for treating CNS disorders” (Sunovion Pharmaceuticals Inc., priority 2015, dated 2017).

Each structure is given as a SMILES string. Structures can show the parent of a compound that is named as a salt.

For the assay, the system named is mice. As to the kind of experiment: Neuropharmacological Assay (SmartCube). The assay is classed as in vivo. The following applies: i.p. 15 min before behavioral test; 3 doses, most efficacious dose(s) presented. The text has this: Neurosci. […] As reported in Roberds, because psychiatric diseases generally result from disorders of cell-cell communication or circuitry, intact systems are useful in detecting improvement in disease-relevant endpoints. These endpoints are typically behavioral in nature, often requiring human observation and interpretation. To facilitate testing of multiple compounds for behavioral effects relevant to psychiatric disease, PsychoGenics, Inc. (Tarrytown, N.Y., “PGI”) developed SmartCube™, an automated system in which behaviors of compound-treated mice are captured by digital video and analyzed with computer algorithms. […] PGI Analytical Systems uses data from SmartCube™ to compare the behavioral signature of a test compound to a database of behavioral signatures obtained using a large set of diverse reference compounds. (The composition of the database as well as validation of the method is further described in Roberds). In this way, the neuropharmacological effects of a test compound can be predicted by similarity to major classes of compounds, such as antipsychotics, anxiolytics and antidepressants.
The SmartCube™ system produces an activity signature indicating the probability that the activity of the test compound at the administered dose matches a given class of neuropharmacological agents. (See, e.g., Roberds, FIGS. 2 and 3). The test compound is simultaneously compared against multiple classes of agents; thus, a separate probability is generated for each behavioral effect measured (e.g., anxiolytic activity, analgesic activity, etc.). In Table 2 and 2B, these probabilities are reported for each behavioral effect measured as follows:
where LOQ is the limit of quantification.
Provided compounds were dissolved in a mixture of Pharmasolve™ (N-methyl-2-pyrrolidone), polyethylene glycol and propylene glycol, and were injected i.p. 15 min. before the behavioral test. For each compound, injections were administered at 3 different doses. For each behavioral effect measured, results for the most efficacious dose(s) are presented.
Take `CNCC1OCCn2nc3cnccc3c21.Cl.Cl` (stereo not drawn) [Compound 61, 1-((methylammonio)methyl)-3,4-dihydro-1H-pyrido[3′,4′:3,4]pyrazolo[5,1-c][1,4]oxazin-8-ium chloride]: the “AD: ADHD (probability of class match)” value was “++ (5%≦ ++ <25%)”, the “AG: analgesic (probability of class match)” value (“AG: analgesic” below) is recorded as “+ (LOQ≦ + <5%)”, the “AX: anxiolytic (probability of class match)” value (shortened to “AX: anxiolytic”) is “+ (LOQ≦ + <5%)” and the “CE: cognitive enhancer (probability of class match)” value (from here on “CE: cognitive enhancer”) is “+ (LOQ≦ + <5%)”. The “DP: anti-depressant (probability of class match)” value (“DP: anti-depressant” for short) is recorded as “++++ (50%≦ ++++)”, the “HA: hallucinogen (probability of class match)” value (from here on “HA: hallucinogen”) is “++ (5%≦ ++ <25%)”, the “MS: mood stabilizer (probability of class match)” value (shortened to “MS: mood stabilizer”) was “+ (LOQ≦ + <5%)” and the “PS: anti-psychotic (probability of class match)” value (shortened to “PS: anti-psychotic”) is recorded as “+ (LOQ≦ + <5%)”. The “SD: sedative hypnotic (probability of class match)” value (from here on “SD: sedative hypnotic”) was “+ (LOQ≦ + <5%)”, the “UN: uncharacterized CNS activity (probability of class match)” value (“UN: uncharacterized CNS activity” below) is reported as “++ (5%≦ ++ <25%)” and the “XG: anxiogenic (probability of class match)” value (from here on “XG: anxiogenic”) was “+ (LOQ≦ + <5%)”.

Consider `Cl.c1ccc2c3n(nc2c1)CCO[C@@H]3[C@@H]1COCCN1` (racemic) [Compound 45, (+/−)—(S)-3-((R)-3,4-dihydro-1H-[1,4]oxazino[4,3-b]indazol-1-yl)morpholin-4-ium chloride], for which the “AD: ADHD (probability of class match)” value is reported as “+ (LOQ≦ + <5%)”, the “AG: analgesic” value is “+ (LOQ≦ + <5%)”, the “AX: anxiolytic” value is on record as “+ (LOQ≦ + <5%)” and the “CE: cognitive enhancer” value was “+ (LOQ≦ + <5%)”. Also, the “DP: anti-depressant” value is recorded as “+ (LOQ≦ + <5%)”, the “HA: hallucinogen” value is recorded as “+ (LOQ≦ + <5%)”, the “MS: mood stabilizer” value is “+ (LOQ≦ + <5%)” and the “PS: anti-psychotic” value is given as “+ (LOQ≦ + <5%)”. Besides, the “SD: sedative hypnotic” value is on record as “+ (LOQ≦ + <5%)”, the “UN: uncharacterized CNS activity” value is listed as “+ (LOQ≦ + <5%)” and the “XG: anxiogenic” value is “+ (LOQ≦ + <5%)”.

As to `Cl.c1ccc2c3n(nc2c1)CCOC3[C@@H]1COCCN1` (stereo partly drawn) [Compound 43, (3S)-3-(3,4-dihydro-1H-[1,4]oxazino[4,3-b]indazol-1-yl)morpholin-4-ium chloride], the “AD: ADHD (probability of class match)” value is recorded as “+ (LOQ≦ + <5%)”, the “AG: analgesic” value is given as “+ (LOQ≦ + <5%)”, the “AX: anxiolytic” value is “+ (LOQ≦ + <5%)” and the “CE: cognitive enhancer” value is “+ (LOQ≦ + <5%)”. Further, the “DP: anti-depressant” value is recorded as “+ (LOQ≦ + <5%)”, the “HA: hallucinogen” value is recorded as “+ (LOQ≦ + <5%)”, the “MS: mood stabilizer” value is reported as “+ (LOQ≦ + <5%)” and the “PS: anti-psychotic” value is “+ (LOQ≦ + <5%)”. Further, the “SD: sedative hypnotic” value is “+ (LOQ≦ + <5%)”, the “UN: uncharacterized CNS activity” value was “+ (LOQ≦ + <5%)” and the “XG: anxiogenic” value is reported as “+ (LOQ≦ + <5%)”.

Take `Cl.NCC1OCCn2nc3ccc(F)cc3c21` (stereo not drawn) [Compound 9, (9-fluoro-3,4-dihydro-1H-[1,4]oxazino[4,3-b]indazol-1-yl)methanaminium chloride]: the “AD: ADHD (probability of class match)” value is given as “++ (5%≦ ++ <25%)”, the “AG: analgesic” value was “++ (5%≦ ++ <25%)”, the “AX: anxiolytic” value is “+ (LOQ≦ + <5%)” and the “CE: cognitive enhancer” value was “++ (5%≦ ++ <25%)”. For the same compound, the “DP: anti-depressant” value is recorded as “++ (5%≦ ++ <25%)”, the “HA: hallucinogen” value is reported as “+ (LOQ≦ + <5%)”, the “MS: mood stabilizer” value was “+ (LOQ≦ + <5%)” and the “PS: anti-psychotic” value is reported as “+ (LOQ≦ + <5%)”. For the same compound, the “SD: sedative hypnotic” value is on record as “+ (LOQ≦ + <5%)”, the “UN: uncharacterized CNS activity” value is recorded as “+++ (25%≦ +++ <50%)” and the “XG: anxiogenic” value is “+ (LOQ≦ + <5%)”.

Turning to `c1ccc2c3n(nc2c1)CCOC3[C@@H]1CCCN1` (stereo partly drawn) [Compound 13, 1-((S)-pyrrolidin-2-yl)-3,4-dihydro-1H-[1,4]oxazino[4,3-b]indazole hydrochloride], the “AD: ADHD (probability of class match)” value is listed as “+ (LOQ≦ + <5%)”, the “AG: analgesic” value is recorded as “+++ (25%≦ +++ <50%)”, the “AX: anxiolytic” value is “++ (5%≦ ++ <25%)” and the “CE: cognitive enhancer” value was “++ (5%≦ ++ <25%)”. The “DP: anti-depressant” value is “++ (5%≦ ++ <25%)”, the “HA: hallucinogen” value is given as “+ (LOQ≦ + <5%)”, the “MS: mood stabilizer” value was “++ (5%≦ ++ <25%)” and the “PS: anti-psychotic” value is reported as “+ (LOQ≦ + <5%)”. For the same compound, the “SD: sedative hypnotic” value is listed as “+ (LOQ≦ + <5%)”, the “UN: uncharacterized CNS activity” value is recorded as “+ (LOQ≦ + <5%)” and the “XG: anxiogenic” value is recorded as “+ (LOQ≦ + <5%)”.

Take `CC(C)N(C)CC1OCCCn2nc3ccccc3c21.Cl` (stereo not drawn) [Compound 54, N-((4,5-dihydro-1H,3H-[1,4]oxazepino[4,3-b]indazol-1-yl)methyl)-N-methylpropan-2-aminium chloride]: the “AD: ADHD (probability of class match)” value is on record as “+ (LOQ≦ + <5%)”, the “AG: analgesic” value was “+ (LOQ≦ + <5%)”, the “AX: anxiolytic” value is listed as “++ (5%≦ ++ <25%)” and the “CE: cognitive enhancer” value is on record as “+ (LOQ≦ + <5%)”. For the same compound, the “DP: anti-depressant” value is on record as “+ (LOQ≦ + <5%)”, the “HA: hallucinogen” value was “+ (LOQ≦ + <5%)”, the “MS: mood stabilizer” value is listed as “+ (LOQ≦ + <5%)” and the “PS: anti-psychotic” value is given as “+ (LOQ≦ + <5%)”. Also, the “SD: sedative hypnotic” value is reported as “+ (LOQ≦ + <5%)”, the “UN: uncharacterized CNS activity” value was “+ (LOQ≦ + <5%)” and the “XG: anxiogenic” value was “+ (LOQ≦ + <5%)”.

For the compound `c1ccc2c3n(nc2c1)CCOC31CCNCC1` [Compound 36, 3′,4′-dihydrospiro[piperidine-4,1′-[1,4]oxazino[4,3-b]indazol]-1-ium chloride], the “AD: ADHD (probability of class match)” value is “+ (LOQ≦ + <5%)”, the “AG: analgesic” value is listed as “++ (5%≦ ++ <25%)”, the “AX: anxiolytic” value is recorded as “++ (5%≦ ++ <25%)” and the “CE: cognitive enhancer” value is listed as “++ (5%≦ ++ <25%)”. The “DP: anti-depressant” value is recorded as “+++ (25%≦ +++ <50%)”, the “HA: hallucinogen” value is reported as “+ (LOQ≦ + <5%)”, the “MS: mood stabilizer” value is on record as “+ (LOQ≦ + <5%)” and the “PS: anti-psychotic” value is “++ (5%≦ ++ <25%)”. Further, the “SD: sedative hypnotic” value was “++ (5%≦ ++ <25%)”, the “UN: uncharacterized CNS activity” value is listed as “++ (5%≦ ++ <25%)” and the “XG: anxiogenic” value was “+ (LOQ≦ + <5%)”.

Consider `CN(C)CC1OCCn2nc3cc(F)ccc3c21.Cl` (stereo not drawn) [Compound 11, 1-(8-fluoro-3,4-dihydro-1H-[1,4]oxazino[4,3-b]indazol-1-yl)-N,N-dimethylmethanaminium], for which the “AD: ADHD (probability of class match)” value was “+ (LOQ≦ + <5%)”, the “AG: analgesic” value is recorded as “+ (LOQ≦ + <5%)”, the “AX: anxiolytic” value is “+ (LOQ≦ + <5%)” and the “CE: cognitive enhancer” value is on record as “+ (LOQ≦ + <5%)”. Further, the “DP: anti-depressant” value is given as “+++ (25%≦ +++ <50%)”, the “HA: hallucinogen” value is listed as “+ (LOQ≦ + <5%)”, the “MS: mood stabilizer” value was “+ (LOQ≦ + <5%)” and the “PS: anti-psychotic” value is “++ (5%≦ ++ <25%)”. Moreover, the “SD: sedative hypnotic” value is recorded as “++ (5%≦ ++ <25%)”, the “UN: uncharacterized CNS activity” value is “+ (LOQ≦ + <5%)” and the “XG: anxiogenic” value is given as “+ (LOQ≦ + <5%)”.

Consider `CNCC1OCCn2nc3cc(F)ccc3c21` (stereo not drawn) [Compound 10, 1-(8-fluoro-3,4-dihydro-1H-[1,4]oxazino[4,3-b]indazol-1-yl)-N-methylmethanaminium], for which the “AD: ADHD (probability of class match)” value is recorded as “+ (LOQ≦ + <5%)”, the “AG: analgesic” value was “++ (5%≦ ++ <25%)”, the “AX: anxiolytic” value was “++ (5%≦ ++ <25%)” and the “CE: cognitive enhancer” value is listed as “+ (LOQ≦ + <5%)”. Further, the “DP: anti-depressant” value is “++++ (50%≦ ++++)”, the “HA: hallucinogen” value is listed as “+ (LOQ≦ + <5%)”, the “MS: mood stabilizer” value is given as “+ (LOQ≦ + <5%)” and the “PS: anti-psychotic” value is given as “++ (5%≦ ++ <25%)”. Moreover, the “SD: sedative hypnotic” value is “+ (LOQ≦ + <5%)”, the “UN: uncharacterized CNS activity” value is “+ (LOQ≦ + <5%)” and the “XG: anxiogenic” value is on record as “++ (5%≦ ++ <25%)”.
